Laboratory results as given in patent publication US12565491B2, “(Isopropyl-triazolyl)pyridinyl-substituted benzooxazinone or benzothiazinone derivatives and use thereof” (HK INNO.N CORPORATION, priority 2018, dated 2026).

Molecular target: T1, ASK-1 enzyme (Homo sapiens, UniProt Q99683)
T1 construct: purchased Signal Chem M13-11G-10
Assay: Inhibitory ability against ASK-1 enzyme activity (ADP-Glo Kinase Assay)
Assay type: biochemical
Details: 250 μM ATP, MBP substrate, 30° C. for 40 minutes
Procedure: Experimental Example 1: Assay of Inhibitory Ability Against ASK-1 Enzyme Activity (ADP-Glo™ Kinase Assay)
In order to evaluate the inhibitory ability of the compounds of Examples 1 to 25 against ASK-1 enzyme activity, the following experiment was carried out using ADP-Glo™ (Promega, Cat. No. V9101). Each of the compounds was prepared into a solution at concentrations of 0.32 nM, 1.6 nM, 8 nM, 40 nM, 200 nM, 1,000 nM by adding a kinase buffer solution (40 mM Tris, 20 mM MgCl2, 0.1 mg/mL bovine serum albumin in H2O). Subsequently, 250 μM of ATP (Promega, Cat. No. V915A) and 0.5 g/L of MBP substrate (Signal Chem, Cat. No. 42-51N) were added thereto, and the mixture was reacted at 30° C. for 40 minutes in the presence of 15 ng of ASK-1 enzyme (Signal Chem, Cat. No. M13-11G-10). Then, the ADP-Glo™ reagent and a kinase detection reagent were sequentially added thereto and reacted for 40 minutes and 10 minutes, respectively. After completion of the reaction, luminescence was measured using a Synergy™ NEO microplate reader (BioTEK, NEOB-1311189).
The inhibitory ability of the compounds of Examples 1 to 25 against ASK-1 enzyme activity was verified by analyzing data from the measured RLU values. Specifically, the inhibitory ability against ASK-1 enzyme activity was assessed by deriving the residual activity percentage of the ASK-1 enzyme in the samples treated with the compounds at the concentration to be tested, while using the RLU value of the sample not treated with the compounds as a 100% control.

T1 sequence (Q99683 649-946 limits assumed): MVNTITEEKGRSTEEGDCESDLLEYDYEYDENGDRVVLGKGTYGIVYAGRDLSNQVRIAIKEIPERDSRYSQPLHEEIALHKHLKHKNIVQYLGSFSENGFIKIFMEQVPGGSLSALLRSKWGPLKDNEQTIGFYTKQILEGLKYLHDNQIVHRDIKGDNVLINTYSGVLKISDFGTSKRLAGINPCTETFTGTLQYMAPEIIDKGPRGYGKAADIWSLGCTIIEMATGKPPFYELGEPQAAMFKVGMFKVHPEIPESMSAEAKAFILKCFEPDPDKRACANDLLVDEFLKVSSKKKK

| SMILES | IC50 [nM] |
| --- | --- |
| CC(C)n1cnnc1-c1cccc(N2COc3ccc(-c4ccc(Cn5cccn5)cc4)cc3C2=O)n1 [Example 13, 6-(4-((1H-pyrazol-1-yl)methyl)phenyl)-3-(6-(4-isopropyl-4H-1,2,4-triazol-3-yl)pyridin-2-yl)-2,3-dihydro-4H-benzo[e][1,3]oxazin-4-one] | 46.4 |
| CC(C)CCn1cc(-c2ccc3c(c2)C(=O)N(c2cccc(-c4nncn4C(C)C)n2)CO3)cn1 [Example 11, 6-(1-isopentyl-1H-pyrazol-4-yl)-3-(6-(4-isopropyl-4H-1,2,4-triazol-3-yl)pyridin-2-yl)-2,3-dihydro-4H-benzo[e][1,3]oxazin-4-one] | 18.5 |
| CC(C)n1cnnc1-c1cccc(N2CSc3ccc(-c4cnc(C5CC5)nc4)cc3C2=O)n1 [Example 23, 6-(2-cyclopropylpyrimidin-5-yl)-3-(6-(4-isopropyl-4H-1,2,4-triazol-3-yl)pyridin-2-yl)-2,3-dihydro-4H-benzo[e][1,3]thiazin-4-one] | 23.1 |
| CCOC(C)n1cc(-c2ccc3c(c2)C(=O)N(c2cccc(-c4nncn4C(C)C)n2)CO3)cn1 (stereo not shown) [Example 6, 6-(1-(1-ethoxyethyl)-1H-pyrazol-4-yl)-3-(6-(4-isopropyl-4H-1,2,4-triazol-3-yl)pyridin-2-yl)-2,3-dihydro-4H-benzo[e][1,3]oxazin-4-one] | 29.2 |
| CC(C)n1cnnc1-c1cccc(N2COc3ccc(-c4cnn(C(F)F)c4)cc3C2=O)n1 [Example 7, 6-(1-(difluoromethyl)-1H-pyrazol-4-yl)-3-(6-(4-isopropyl-4H-1,2,4-triazol-3-yl)pyridin-2-yl)-2,3-dihydro-4H-benzo[e][1,3]oxazin-4-one] | 33.1 |
| CC(C)n1cnnc1-c1cccc(N2COc3ccc(-c4ccc(S(C)(=O)=O)cc4)cc3C2=O)n1 [Example 2, 3-(6-(4-isopropyl-4H-1,2,4-triazol-3-yl)pyridin-2-yl)-6-(4-(methylsulfonyl)phenyl)-2,3-dihydro-4H-benzo[e][1,3]oxazin-4-one] | 50 |
| Cc1cc2c(cc1-c1cncnc1)C(=O)N(c1cccc(-c3nncn3C(C)C)n1)CO2 [Example 16, 3-(6-(4-isopropyl-4H-1,2,4-triazol-3-yl)pyridin-2-yl)-7-methyl-6-(pyrimidin-5-yl)-2,3-dihydro-4H-benzo[e][1,3]oxazin-4-one] | 20 |
| CC(C)n1cnnc1-c1cccc(N2CSc3ccc(-c4cnn(C5CC5)c4)cc3C2=O)n1 [Example 24, 6-(1-cyclopropyl-1H-pyrazol-4-yl)-3-(6-(4-isopropyl-4H-1,2,4-triazol-3-yl)pyridin-2-yl)-2,3-dihydro-4H-benzo[e][1,3]thiazin-4-one] | 26.2 |
| Cc1ncc(-c2ccc3c(c2)C(=O)N(c2cccc(-c4nncn4C(C)C)n2)CS3)cn1 [Example 25, 3-(6-(4-isopropyl-4H-1,2,4-triazol-3-yl)pyridin-2-yl)-6-(2-methylpyrimidin-5-yl)-2,3-dihydro-4H-benzo[e][1,3]thiazin-4-one] | 76.8 |
| CC(C)n1cnnc1-c1cccc(N2COc3ccc(-c4cnn(C5CCOC5)c4)cc3C2=O)n1 (stereo not shown) [Example 5, 3-(6-(4-isopropyl-4H-1,2,4-triazol-3-yl)pyridin-2-yl)-6-(1-(tetrahydrofuran-3-yl)-1H-pyrazol-4-yl)-2,3-dihydro-4H-benzo[e][1,3]oxazin-4-one] | 38.8 |

Molecules with a lower IC50, results first:

| IC50 [nM] | SMILES |
| --- | --- |
| 17 | CC(C)n1cnnc1-c1cccc(N2COc3ccc(-c4ccc(C5(C#N)CC5)cc4)cc3C2=O)n1 [Example 12, 1-(4-(3-(6-(4-isopropyl-4H-1,2,4-triazol-3-yl)pyridin-2-yl)-4-oxo-3,4-dihydro-2H-benzo[e][1,3]oxazin-6-yl)phenyl) cyclopropanecarbonitrile] |
| 13.8 | CC(C)n1cnnc1-c1cccc(N2COc3ccc(-c4cnn(C5CC5)c4)cc3C2=O)n1 [Example 8, 6-(1-cyclopropyl-1H-pyrazol-4-yl)-3-(6-(4-isopropyl-4H-1,2,4-triazol-3-yl)pyridin-2-yl)-2,3-dihydro-4H-benzo[e][1,3]oxazin-4-one] |
| 11 | CC(C)Cn1cc(-c2ccc3c(c2)C(=O)N(c2cccc(-c4nncn4C(C)C)n2)CO3)cn1 [Example 9, 6-(1-isobutyl-1H-pyrazol-4-yl)-3-(6-(4-isopropyl-4H-1,2,4-triazol-3-yl)pyridin-2-yl)-2,3-dihydro-4H-benzo[e][1,3]oxazin-4-one] |
| 10.6 | Cc1cc2c(cc1-c1cnn(C3CCOC3)c1)C(=O)N(c1cccc(-c3nncn3C(C)C)n1)CO2 (stereo not shown) [Example 18, 3-(6-(4-isopropyl-4H-1,2,4-triazol-3-yl)pyridin-2-yl)-7-methyl-6-(1-(tetrahydrofuran-3-yl)-1H-pyrazol-4-yl)-2,3-dihydro-4H-benzo[e][1,3]oxazin-4-one] |
| 9.3 | CC(C)n1cnnc1-c1cccc(N2COc3ccc(-c4cnn(CC5CC5)c4)cc3C2=O)n1 [Example 1, 6-(1-(cyclopropylmethyl)-1H-pyrazol-4-yl)-3-(6-(4-isopropyl-4H-1,2,4-triazol-3-yl)pyridin-2-yl)-2,3-dihydro-4H-benzo[e][1,3]oxazin-4-one] |
| 9.1 | CC(C)n1cnnc1-c1cccc(N2COc3ccc(-c4ccncc4)cc3C2=O)n1 [Example 3, 3-(6-(4-isopropyl-4H-1,2,4-triazol-3-yl)pyridin-2-yl)-6-(pyridin-4-yl)-2,3-dihydro-4H-benzo[e][1,3]oxazin-4-one] |
| 7.8 | CSc1ncc(-c2cc3c(cc2C)OCN(c2cccc(-c4nncn4C(C)C)n2)C3=O)cn1 [Example 17, 3-(6-(4-isopropyl-4H-1,2,4-triazol-3-yl)pyridin-2-yl)-7-methyl-6-(2-(methylthio)pyrimidin-5-yl)-2,3-dihydro-4H-benzo[e][1,3]oxazin-4-one] |
| 7.8 | Cc1ccnc(Nc2ccc3c(c2)C(=O)N(c2cccc(-c4nncn4C(C)C)n2)CO3)n1 [Example 4, 3-(6-(4-isopropyl-4H-1,2,4-triazol-3-yl)pyridin-2-yl)-6-(4-methylpyrimidin-2-ylamino)-2,3-dihydro-4H-benzo[e][1,3]oxazin-4-one] |
| 7.3 | CC(C)n1cnnc1-c1cccc(N2CSc3ccc(-c4cnn(CC5CC5)c4)cc3C2=O)n1 [Example 21, 6-(1-(cyclopropylmethyl)-1H-pyrazol-4-yl)-3-(6-(4-isopropyl-4H-1,2,4-triazol-3-yl)pyridin-2-yl)-2,3-dihydro-4H-benzo[e][1,3]thiazin-4-one] |
| 7.2 | CC(C)n1cnnc1-c1cccc(N2COc3ccc(Nc4nccc(C(F)F)n4)cc3C2=O)n1 [Example 10, 6-(4-(difluoromethyl)pyrimidin-2-ylamino)-3-(6-(4-isopropyl-4H-1,2,4-triazol-3-yl)pyridin-2-yl)-2,3-dihydro-4H-benzo[e][1,3]oxazin-4-one] |
| 6.1 | CC(C)n1cc(-c2ccc3c(c2)C(=O)N(c2cccc(-c4nncn4C(C)C)n2)CS3)cn1 [Example 22, 6-(1-isopropyl-1H-pyrazol-4-yl)-3-(6-(4-isopropyl-4H-1,2,4-triazol-3-yl)pyridin-2-yl)-2,3-dihydro-4H-benzo[e][1,3]thiazin-4-one] |
| 4.5 | Cc1cc2c(cc1-c1cnn(C(C)C)c1)C(=O)N(c1cccc(-c3nncn3C(C)C)n1)CO2 [Example 15, 6-(1-isopropyl-1H-pyrazol-4-yl)-3-(6-(4-isopropyl-4H-1,2,4-triazol-3-yl)pyridin-2-yl)-7-methyl-2,3-dihydro-4H-benzo[e][1,3]oxazin-4-one] |
| 4.4 | Cc1cc2c(cc1-c1cnn(CC3CC3)c1)C(=O)N(c1cccc(-c3nncn3C(C)C)n1)CO2 [Example 14, 6-(1-(cyclopropylmethyl)-1H-pyrazol-4-yl)-3-(6-(4-isopropyl-4H-1,2,4-triazol-3-yl)pyridin-2-yl)-7-methyl-2,3-dihydro-4H-benzo[e][1,3]oxazin-4-one] |
| 4 | CC(C)n1cnnc1-c1cccc(N2COc3ccc(-n4cnc(C5CC5)c4)cc3C2=O)n1 [Example 19, 6-(4-cyclopropyl-1H-imidazol-1-yl)-3-(6-(4-isopropyl-4H-1,2,4-triazol-3-yl)pyridin-2-yl)-2,3-dihydro-4H-benzo[e][1,3]oxazin-4-one] |
| 3.6 | CCOC(C)n1cc(-c2cc3c(cc2C)OCN(c2cccc(-c4nncn4C(C)C)n2)C3=O)cn1 (stereo not shown) [Example 20, 6-(1-(1-ethoxyethyl)-1H-pyrazol-4-yl)-3-(6-(4-isopropyl-4H-1,2,4-triazol-3-yl)pyridin-2-yl)-7-methyl-2,3-dihydro-4H-benzo[e][1,3]oxazin-4-one] |
